Values quoted from earlier work as cited in patent publication US10927398B2, “Compositions for CYP450 phenotyping using saliva samples” (Concordia University, Inc., priority 2015, dated 2021).
Where two headings read alike, the source gives them in different places.

What was measured:
[1] = cited from earlier work
plasma protein = settings: cited from earlier work
[2] = cited from earlier work; remark: listed apart in the source
[3] = Table of Exemplary Drugs, CYP3A4
[4] = Table of Exemplary Drugs, CYP2D6
[5] = Table of Exemplary Drugs, CYP1A2
[6] = Table of Exemplary Drugs, CYP2C9
[7] = Table of Exemplary Drugs, CYP2C19

## CCC1(c2ccccc2)C(=O)NC(=O)N(C)C1=O (stereo not drawn) [Methylphenobarbital]
[1]; in vivo, po
  ORAL BIOAVAILABILITY: 50%
Plasma protein; plasma
  PLASMA PROTEIN BINDING: 70-76% ^
[2]; in vivo
  HALF-LIFE: 31 to 67 h

## COC(=O)N[C@H](C(=O)N[C@@H](Cc1ccccc1)[C@@H](O)CN(Cc1ccc(-c2ccccn2)cc1)NC(=O)[C@@H](NC(=O)OC)C(C)(C)C)C(C)(C)C [Atazanavir (Reyataz), Atazanavir]
[1]; [3]
  ORAL BIOAVAILABILITY: 60-68%
Plasma protein; [3]
  PLASMA PROTEIN BINDING: 86%
[2]; [3]
  HALF-LIFE: 7 h

## COC(=O)C1=C(C)NC(C)=C(C(=O)OCC(C)C)C1c1ccccc1[N+](=O)[O-] (stereo not drawn) [Nisoldipine (Sular), Nisoldipine]
[1]; [3]
  ORAL BIOAVAILABILITY: 5%
Plasma protein; [3]
  PLASMA PROTEIN BINDING: 99%
[2]; [3]
  HALF-LIFE: 13.7 h

## Cc1nnc2n1-c1ccc(Cl)cc1C(c1ccccc1)=NC2 [Alprazolam (Xanax), Alprazolam]
[1]; [3]
  ORAL BIOAVAILABILITY: 90%
Plasma protein; [3]
  PLASMA PROTEIN BINDING: 80%
[2]; [3]
  HALF-LIFE: 11 h

## CNCC[C@H](Oc1cccc2ccccc12)c1cccs1 [Duloxetine]
[1]; [4]
  ORAL BIOAVAILABILITY: 30-80%
Plasma protein; [4]
  PLASMA PROTEIN BINDING: >90%
[2]; in vivo
  HALF-LIFE: 12 h

## COc1ccccc1Oc1c(NS(=O)(=O)c2ccc(C(C)(C)C)cc2)nc(-c2ncccn2)nc1OCCO [Basentan (Tracleer), Basentan]
[1]; [3]
  ORAL BIOAVAILABILITY: 50%
Plasma protein; [3]
  PLASMA PROTEIN BINDING: 98%
[2]; [3]
  HALF-LIFE: 5 h

## O=C1Nc2ccc(Cl)cc2[C@@](C#CC2CC2)(C(F)(F)F)O1 [Efavir enz (Sustiva), Efavir enz]
[1]; [3]
  ORAL BIOAVAILABILITY: 40-45%
Plasma protein; [3]
  PLASMA PROTEIN BINDING: 99.5-99.75% ^
[2]; [3]
  HALF-LIFE: 40 to 55 h

## CCN1CCC[C@H]1CNC(=O)c1c(OC)ccc(Br)c1OC [Remoxipride]
[1]; [4]
  ORAL BIOAVAILABILITY: 96%
Plasma protein; [4]
  PLASMA PROTEIN BINDING: 5-6%
[2]; [4]
  HALF-LIFE: 3 to 6 h

## CC(C)CC(N(C)C)C1(c2ccc(Cl)cc2)CCC1 (stereo not drawn) [Sibutramine (Meridia), Sibutramine]
[1]; [3]
  ORAL BIOAVAILABILITY: 77%
Plasma protein; [3]
  PLASMA PROTEIN BINDING: 97%
[2]; [3]
  HALF-LIFE: 1.1 h

## CCC(=O)O[C@](Cc1ccccc1)(c1ccccc1)[C@H](C)CN(C)C [Propoxyphene (Darvon), Propoxyphene]
[1]; [3]
  ORAL BIOAVAILABILITY: 40%
Plasma protein; [3]
  PLASMA PROTEIN BINDING: 78%
[2]; [3]
  HALF-LIFE: 6 to 12 h

## Cc1cccc(C)c1OCC(C)N (stereo not drawn) [Mexiletine]
[1]; [5]
  ORAL BIOAVAILABILITY: 90%
[1]; [4]
  ORAL BIOAVAILABILITY: 80-90%
Plasma protein; [5]
  PLASMA PROTEIN BINDING: 50-60% ^
Plasma protein; [4]
  PLASMA PROTEIN BINDING: 50-70% ^
[2]; [5]
  HALF-LIFE: 10 to 12 h
[2]; [4]
  HALF-LIFE: 6 to 17 h

## Nc1c2c(nc3ccccc13)CCCC2 [Tacrine]
[1]; in vivo, po
  ORAL BIOAVAILABILITY: 2.4-36%
Plasma protein; plasma
  PLASMA PROTEIN BINDING: 55%
[2]; in vivo
  HALF-LIFE: 2 to 4 h

## C[C@]12C=CC(=O)N[C@@H]1CC[C@@H]1[C@@H]2CC[C@]2(C)[C@@H](C(=O)Nc3cc(C(F)(F)F)ccc3C(F)(F)F)CC[C@@H]12 [Dutasteride (Avodart), Dutasteride]
[1]; [3]
  ORAL BIOAVAILABILITY: 60%
Plasma protein; [3]
  PLASMA PROTEIN BINDING: 99%
[2]; [3]
  HALF-LIFE: 5 weeks

## O=C1CCc2cc(OCCCCc3nnnn3C3CCCCC3)ccc2N1 [Cilostazol (Pletal), Cilostazol]
[1]; [3]
  ORAL BIOAVAILABILITY: 87-100%
Plasma protein; [3]
  PLASMA PROTEIN BINDING: 95-98% ^
[2]; [3]
  HALF-LIFE: 11 to 13 h

## CC[C@@H](c1cccc(O)c1)[C@@H](C)CN(C)C [Tapentadol]
[1]; [6]
  ORAL BIOAVAILABILITY: 32%
[1]; [7]
  ORAL BIOAVAILABILITY: 32%
[1]; [4]
  ORAL BIOAVAILABILITY: 32%
Plasma protein; [6]
  PLASMA PROTEIN BINDING: 20%
Plasma protein; [7]
  PLASMA PROTEIN BINDING: 20%
Plasma protein; [4]
  PLASMA PROTEIN BINDING: 20%
[2]; [6]
  HALF-LIFE: 4 to 5 h
[2]; [7]
  HALF-LIFE: 4 to 5 h
[2]; [4]
  HALF-LIFE: 4 to 5 h

## CC(=O)N1CCN(c2ccc(OCC3COC(Cn4ccnc4)(c4ccc(Cl)cc4Cl)O3)cc2)CC1 (stereo not drawn) [Ketoconazole (Nizoral), Ketoconazole]
[1]; [3]
  ORAL BIOAVAILABILITY: 75%
Plasma protein; [3]
  PLASMA PROTEIN BINDING: 99%
[2]; [3]
  HALF-LIFE: 2 to 8 h

## C=CCc1ccccc1OCC(O)CNC(C)C (stereo not drawn) [Alprenolol]
[1]; [4]
  ORAL BIOAVAILABILITY: 20%
Plasma protein; [4]
  PLASMA PROTEIN BINDING: 80%
[2]; [4]
  HALF-LIFE: 2 to 3 h

## Cc1nccn1CC1CCc2c(c3ccccc3n2C)C1=O (stereo not drawn) [Ondansetron]
[1]; [5]
  ORAL BIOAVAILABILITY: 100%
[1]; [4]
  ORAL BIOAVAILABILITY: 56%
Plasma protein; [5]
  PLASMA PROTEIN BINDING: 70-76% ^
Plasma protein; [4]
  PLASMA PROTEIN BINDING: 70-76% ^
[2]; [5]
  HALF-LIFE: 3 to 6 h
[2]; [4]
  HALF-LIFE: 3 to 6.2 h

## CCCC1O[C@@H]2C[C@H]3[C@@H]4CCC5=CC(=O)C=C[C@]5(C)[C@H]4[C@@H](O)C[C@]3(C)[C@]2(C(=O)CO)O1 (stereo partly drawn) [Budesonide (Entocort), Budesonide]
[1]; [3]
  ORAL BIOAVAILABILITY: 9-21%
Plasma protein; [3]
  PLASMA PROTEIN BINDING: 85-90% ^
[2]; [3]
  HALF-LIFE: 2 to 3.6 h

## CC(=O)O[C@H]1C(=O)[C@@]2(C)[C@H]([C@H](OC(=O)c3ccccc3)[C@]3(O)C[C@H](OC(=O)[C@H](O)[C@@H](NC(=O)c4ccccc4)c4ccccc4)C(C)=C1C3(C)C)[C@]1(OC(C)=O)CO[C@@H]1C[C@@H]2O [Paclitaxel (Taxol), Paclitaxel]
[1]; [3]
  ORAL BIOAVAILABILITY: 6.50%
Plasma protein; [3]
  PLASMA PROTEIN BINDING: 89-98% ^
[2]; [3]
  HALF-LIFE: 13.1 to 52.7 h

## CCOc1ccccc1OCCN[C@H](C)Cc1ccc(OC)c(S(N)(=O)=O)c1 [Tamsulosin (Flomax), Tamsulosin]
[1]; [3]
  ORAL BIOAVAILABILITY: >90%
Plasma protein; [3]
  PLASMA PROTEIN BINDING: 94-99% ^
[2]; [3]
  HALF-LIFE: 9 to 15 h
